This passage reports inhibition and IC50 results from patent US8735406B2, “8-oxodihydropurine derivative” (Dainippon Sumitomo Pharma Co., Ltd., priority 2009, dated 2014).

Each structure is given as a SMILES string. Where a name gives a salt, the structure may show the parent alone.

The target in the test is T1, FAAH (Rattus norvegicus, UniProt P97612).
T1 construct: Preparation of Rat Brain Membranes Preparations (FAAH Enzyme Solution); from tissue; host or cells: rat cerebrum (brain membrane preparation)
T1 sequence (P97612 1-579): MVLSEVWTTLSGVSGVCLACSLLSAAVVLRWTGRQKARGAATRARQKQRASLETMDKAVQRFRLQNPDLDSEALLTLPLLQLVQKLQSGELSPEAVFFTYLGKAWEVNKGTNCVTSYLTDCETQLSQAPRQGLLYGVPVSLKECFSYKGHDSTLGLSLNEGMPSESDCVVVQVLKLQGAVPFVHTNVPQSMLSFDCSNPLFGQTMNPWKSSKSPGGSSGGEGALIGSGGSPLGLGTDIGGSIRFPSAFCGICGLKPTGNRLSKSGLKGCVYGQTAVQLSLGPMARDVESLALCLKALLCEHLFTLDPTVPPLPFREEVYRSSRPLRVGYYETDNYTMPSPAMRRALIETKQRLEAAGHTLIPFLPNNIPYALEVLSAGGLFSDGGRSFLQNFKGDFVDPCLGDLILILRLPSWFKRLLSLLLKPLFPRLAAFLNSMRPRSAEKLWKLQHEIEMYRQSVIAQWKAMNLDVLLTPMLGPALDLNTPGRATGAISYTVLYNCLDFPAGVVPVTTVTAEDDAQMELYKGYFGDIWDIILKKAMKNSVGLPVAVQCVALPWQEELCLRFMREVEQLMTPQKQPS
As to the kind of experiment: Determination of FAAH inhibitory activity in rat (rat brain membrane preparations, [3H]-anandamide hydrolysis). Type of test: biochemical. Particulars: rat brain membrane preparations; for inhibition at 0.1 µM: 100 nM test substance, read-out: FAAH Inhibition, Inhibition Rate at 100 nM; for IC50: test substance 0.1 nM to 1 μM, read-out: FAAH Inhibition IC50. The gist of the method: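 Compounds tested from 0.1 nM to 1 μM to derive IC50 against FAAH hydrolysis in rat brain membrane preparations (100 μg/mL). A 10-min 37 °C preincubation was followed by 10 min with [3H]-anandamide (2 nM) mixed with 2 μM unlabelled anandamide. Radioactive ethanolamine was extracted into the water/methanol layer and counted.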

As for `CN(C)C(=O)n1c(=O)n(C)c2cnc(-c3cccc(OCC(F)(F)F)c3)nc21` [Example 336], the inhibition at 0.1 µM was determined as 85% and the IC50 was determined as 20 nM.
Taken in the same sequence, the figures for `CN(C)C(=O)n1c(=O)n(C)c2cnc(-c3ccc(OC(F)F)cc3)nc21` [Example 337, 2-[4-(Difluoromethoxy)phenyl]-N,N,7-trimethyl-8-oxo-7,8-dihydro-9H-purine-9-carboxamide] were 82% and 46 nM.
The matching figures for `CN(C)C(=O)n1c(=O)n(C)c2cnc(-c3ccc(C(F)(F)F)cc3F)nc21` [Example 338, 2-[2-Fluoro-4-(trifluoromethyl)phenyl]-N,N,7-trimethyl-8-oxo-7,8-dihydro-9H-purine-9-carboxamide]: 83% and 21 nM.
Consider `CN(C)C(=O)n1c(=O)n(C)c2cnc(-c3ccc(C(F)(F)F)cc3Cl)nc21` [Example 339, 2-[2-Chloro-4-(trifluoromethyl)phenyl]-N,N,7-trimethyl-8-oxo-7,8-dihydro-9H-purine-9-carboxamide], for which the inhibition at 0.1 µM was found to be 80% and the half-inhibitory concentration (IC50) was found to be 7 nM.
Consider `COc1ccc(-c2ncc3c(n2)n(C(=O)N2CCC2)c(=O)n3C)cc1` [Example 356, 9-(Azetidin-1-ylcarbonyl)-2-(4-methoxyphenyl)-7-methyl-7,9-dihydro-8H-purine-8-one], for which the inhibition at 0.1 µM is 72% and the half-maximal inhibitory concentration (IC50) stood at 95 nM.
The matching figures for `COc1cccc(Cc2ncc3c(n2)n(C)c(=O)n3C(=O)N2CCC2)c1` [Example 375, 7-(Azetidin-1-ylcarbonyl)-2-(3-methoxybenzyl)-9-methyl-7,9-dihydro-8H-purine-8-one]: 94% and 24 nM.
The matching figures for `Cn1c(=O)n(C(=O)N2CCC2)c2cnc(Cc3cccc(C(F)(F)F)c3)nc21` [Example 379, 7-(Azetidin-1-ylcarbonyl)-9-methyl-2-[3-(trifluoromethyl)benzyl]-7,9-dihydro-8H-purine-8-one]: 96% and 13 nM.
Taken in the same sequence, the figures for `COCCCc1ncc2c(n1)n(C)c(=O)n2C(=O)N1CC(c2ccc(C(F)(F)F)cc2)C1` [Example 380, 2-(3-methoxypropyl)-9-methyl-7-({3-[4-(trifluoromethyl)phenyl]azetidin-1-yl}carbonyl)-7,9-dihydro-8H-purine-8-one] were 100% and 8 nM.
Regarding `COCCCc1ncc2c(n1)n(C)c(=O)n2C(=O)N1CC(c2ccc(F)cc2)C1` [Example 381], the inhibition at 0.1 µM worked out at 84% and the half-inhibitory concentration (IC50) worked out at 8 nM.
As for `COCCCc1ncc2c(n1)n(C)c(=O)n2C(=O)N1CC(c2cccc(F)c2)C1` [Example 382], the inhibition at 0.1 µM is 80% and the concentration for half-maximal inhibition (IC50) worked out at 5 nM.
In the case of `COCCCc1ncc2c(n1)n(C)c(=O)n2C(=O)N1CC(c2ccccc2)C1` [Example 383], the inhibition at 0.1 µM is 65% and the half-maximal inhibitory concentration (IC50) turned out to be 14 nM.
The matching figures for `COCCCc1ncc2c(n1)n(C)c(=O)n2C(=O)N1CC(Oc2ccccc2)C1` [Example 384]: 8% and more than 100 nM.
The matching figures for `CCOc1ccc(C2CN(C(=O)n3c(=O)n(C)c4nc(CCCOC)ncc43)C2)cc1` [Example 385]: 99% and 5 nM.
The matching figures for `COCCCc1ncc2c(n1)n(C)c(=O)n2C(=O)N1CC(c2cccc(C(F)(F)F)c2)C1` [Example 386]: 93% and 7 nM.
For `CCOc1cccc(C2CN(C(=O)n3c(=O)n(C)c4nc(CCCOC)ncc43)C2)c1` [Example 387], the inhibition at 0.1 µM was 92% and the IC50 was 22 nM.
The matching figures for `COCCc1ncc2c(n1)n(C)c(=O)n2C(=O)N1CC(c2ccc(C(F)(F)F)cc2)C1` [Example 388, 2-(2-methoxyethyl)-9-methyl-7-({3-[4-(trifluoromethyl)phenyl]azetidin-1-yl}carbonyl)-7,9-dihydro-8H-purine-8-one hydrochloric acid salt]: 100% and 5 nM.
The matching figures for `CN(C)C(=O)n1c(=O)n(C)c2cnc(CCCOc3ccc(C(F)(F)F)cc3)nc21` [Example 394, N,N,7-trimethyl-8-oxo-2-{3-[4-(trifluoromethyl)phenoxy]propyl}-7,8-dihydro-9H-purine-9-carboxamide hydrochloric acid salt]: 94% and 7 nM.
The matching figures for `CN(C)C(=O)n1c(=O)n(C)c2cnc(CCCOc3cccc(F)c3)nc21` [Example 395]: 78% and 32 nM.
Consider `Cc1ccc(OCCCc2ncc3c(n2)n(C(=O)N(C)C)c(=O)n3C)cc1` [Example 396], for which the inhibition at 0.1 µM was 52% and the IC50 was 78 nM.
Taken in the same sequence, the figures for `Cc1cccc(OCCCc2ncc3c(n2)n(C(=O)N(C)C)c(=O)n3C)c1` [Example 397] were 76% and 32 nM.
Taken in the same sequence, the figures for `CN(C)C(=O)n1c(=O)n(C)c2cnc(CCCOc3ccc(F)cc3)nc21` [Example 398] were 84% and 9 nM.
Consider `CN(C)C(=O)n1c(=O)n(C)c2cnc(CCCOc3cccc(C(F)(F)F)c3)nc21` [Example 399], for which the inhibition at 0.1 µM was determined as 95% and the IC50 amounted to 6 nM.
Regarding `Cn1c(=O)n(C(=O)N2CCC2)c2nc(CCCOc3ccccc3)ncc21` [Example 400], the inhibition at 0.1 µM came out at 88% and the IC50 stood at 98 nM.
As for `Cn1c(=O)n(C(=O)N2CCC2)c2nc(CCCOc3ccc(F)cc3)ncc21` [Example 401, 9-(Azetidin-1-ylcarbonyl)-2-[3-(4-fluorophenoxy)propyl]-7-methyl-7,9-dihydro-8H-purine-8-one], the inhibition at 0.1 µM was 99% and the IC50 stood at 9 nM.
As to `Cn1c(=O)n(C(=O)N2CCC2)c2cnc(COc3ccc(F)cc3)nc21` [Example 402, 7-(azetidin-1-ylcarbonyl)-2-[(4-fluorophenoxy)methyl]-9-methyl-7,9-dihydro-8H-purine-8-one], the inhibition at 0.1 µM is 103% and the IC50 came to 10 nM.
Consider `COc1cccc(OCc2ncc3c(n2)n(C)c(=O)n3C(=O)N2CCC2)c1` [Example 404, 7-(Azetidin-1-ylcarbonyl)-2-[(3-methoxyphenoxy)methyl]-9-methyl-7,9-dihydro-8H-purine-8-one], for which the inhibition at 0.1 µM amounted to 96% and the IC50 was 10 nM.
Taken in the same sequence, the figures for `CCc1cccc(OCc2ncc3c(n2)n(C(=O)N(C)C)c(=O)n3C)c1` [Example 413] were 98% and 3 nM.
The matching figures for `CN(C)C(=O)n1c(=O)n(C)c2cnc(COc3cccc(Cl)c3)nc21` [Example 414]: 84% and 64 nM.
The matching figures for `Cn1c(=O)n(C(=O)N2CCC2)c2nc(COc3ccccc3)ncc21` [Example 415]: 41% and 148 nM.
For the molecule `Cc1ccccc1OCc1ncc2c(n1)n(C(=O)N1CCC1)c(=O)n2C` [Example 416], the inhibition at 0.1 µM was found to be 50% and the IC50 was 112 nM.
With `Cc1cccc(OCc2ncc3c(n2)n(C(=O)N2CCC2)c(=O)n3C)c1` [Example 417], the inhibition at 0.1 µM was 66% and the IC50 worked out at 33 nM.
Consider `CCc1cccc(OCc2ncc3c(n2)n(C(=O)N2CCC2)c(=O)n3C)c1` [Example 418], for which the inhibition at 0.1 µM was determined as 75% and the concentration for half-maximal inhibition (IC50) was 35 nM.
Regarding `Cn1c(=O)n(C(=O)N2CCC2)c2nc(COc3cccc(Cl)c3)ncc21` [Example 419], the inhibition at 0.1 µM stood at 81% and the half-maximal inhibitory concentration (IC50) worked out at 31 nM.
The matching figures for `Cn1c(=O)n(C(=O)N2CCC2)c2nc(COc3cccc(F)c3)ncc21` [Example 420]: 60% and 65 nM.
The matching figures for `CN(C)C(=O)n1c(=O)n(C)c2cnc(COc3ccccc3Cl)nc21` [Example 421]: 85% and 95 nM.
Regarding `CN(C)C(=O)n1c(=O)n(C)c2cnc(COc3cccc(C(F)(F)F)c3)nc21` [Example 422], the inhibition at 0.1 µM worked out at 88% and the half-maximal inhibitory concentration (IC50) is 22 nM.
Taken in the same sequence, the figures for `CN(C)C(=O)n1c(=O)n(C)c2cnc(COc3cccc(OC(F)(F)F)c3)nc21` [Example 423] were 112% and 3 nM.
The matching figures for `Cc1ccc(OCc2ncc3c(n2)n(C(=O)N2CCC2)c(=O)n3C)cc1` [Example 424]: 80% and 26 nM.
The matching figures for `Cn1c(=O)n(C(=O)N2CCC2)c2nc(COc3ccccc3F)ncc21` [Example 425]: 79% and 12 nM.
In the case of `Cn1c(=O)n(C(=O)N2CCC2)c2nc(COc3ccc(F)cc3)ncc21` [Example 426], the inhibition at 0.1 µM was 84% and the IC50 amounted to 9 nM.

Usually inhibition stands for the relative decrease from the control value, in per cent. For orientation: IC50 means the concentration that inhibits the measured activity by half.
